# Laboratory results: patent US8815900B2, “Compounds and compositions for reducing lipid levels” (CVI Pharmaceuticals Limited, priority 2007, dated 2014)
# Counter-ions that a name gives are not always drawn.
# Legend:
# [1] = tested on: LDLR mRNA expression in HepG2 cells; assay: LDLR mRNA expression in HepG2 cells, semi-quantitative RT-PCR; type: cell-based, Human; conditions: 8 hours, indicated doses, corrected by GAPDH mRNA (FIG. 3)
# Description: HepG2 cells obtained from American Tissue Culture Collection (Manassas, Va., USA) were seeded in 6-well culture plates at a density of 0.8×10^6 cells/well cultured in EMEM containing 0.5% FBS and were treated with each purified compound at indicated doses for 8 hours. Total RNA was isolated, and 2 μg per sample was reverse transcribed with random primers using M-MLV (Promega) at 37° C. for 1 hour. PCR was carried out at 94° C. for 30 sec, 60° C. for 30 sec, and 72° C. for 30 sec with initial activation of the enzyme at 94° C. for 1 minute. Thirty cycles were performed for LDLR and GAPDH. PCR was performed using primers HLDLR-up and HLDLR-lo for LDLR and primers HGAPDH-up and HGAPDH-lo for GAPDH. The PCR products were separated on a 1% agarose gel and the band intensity was quantitated. LDLR mRNA levels were corrected by measuring GAPDH mRNA levels.
# After the treatment, a portion of cells was harvested for total RNA, and another portion of cells was used for TG measurement. The LDLR mRNA levels were assessed by semi quantitative RT-PCR, and the cellular TG content was determined as described above.
# [2] = tested on: LDLR ligand uptake activity in HepG2 cells; assay: DiI-LDL uptake (LDLR ligand uptake activity) in HepG2 cells; type: cell-based, Human; conditions: 20 hours; also: key: +: slightly increased fluorescent intensity over control; ++: modestly increased fluorescent intensity over control; +++: strongly increased fluorescent intensity over control
# Description: HepG2 cells (2×10^5 cells/well) in 24-well culture plates were treated with various compounds at indicated concentrations for 20 hours. The fluorescent 1,1′-dioctadecyl-3,3,3′,3′-tetramethylindocarbocyanin perchlorate (DiI-LDL) (Biomedical Technologies, Stoughton, Mass.) at a concentration of 2 μg/mL was added to cells at the end of treatment. After 4 hours, the medium was removed, cells were washed with cold PBS, and were examined immediately under a fluorescent microscope (Nikon) at 200× amplification. The fluorescent intensity in compound-treated cells was compared to that in untreated control cells. […] In these experiments berberine chloride was used for comparison.
# [3] = tested on: hypercholesterolemic hamsters; assay: In vivo lipid lowering of (14R)-THP in hamsters on high cholesterol diet; parameters: species or system Golden Syrian male hamsters; conditions: 12 mg/kg daily i.p., 34 days
# Text: To determine whether the induction of hepatic LDLR expression by corydalis-derived compounds would result in total cholesterol (TC) and LDL-cholesterol (LDL-c) reductions in plasma, hypercholesterolemic hamsters were used as an animal model. In one experiment, 10 Golden Syrian male hamsters under a high cholesterol (HC) diet were divided into 2 groups.
# [4] = tested on: LDLR mRNA expression in HepG2 cells; assay: LDLR mRNA expression in HepG2 cells, quantitative real-time RT-PCR; type: cell-based, Human; conditions: 24 hours; for Activity on LDLR mRNA expression (Fold of control): dose less than or equal to 10 μM
# Description: In yet another experiment, HepG2 cells were treated with various compounds for 24 hours at the indicated doses. Total RNA was isolated and 2 μg was used to generate cDNA in a reaction containing random primers and M-MLV at 37° C. for 1 hour in a volume of […] Real-time PCR was performed on the cDNA using MCEP REALPLEX 2 SYSTEM (Eppendorf) and Universal MasterMix (Applied Biosystems). Human LDLR and GAPDH Pre-Developed TaqMan Assay Reagents (Applied Biosystems) were used to assess the levels of mRNA expressions in HepG2. The levels of LDLR mRNA were normalized to that of GAPDH. Each RNA samples was assayed in triplicate. The abundance of LDLR mRNA in untreated cells was defined as 1, and the amounts of LDLR mRNA from compound-treated cells were plotted relative to that value in FIG. 13. The data shown are mean±s.d.
# Activities of some compounds of Formulas I, II, III, and IV on LDLR mRNA expression were determined. HepG2 cells were treated with new compounds individually at a dose less than or equal to 10 μM for 24 hours. Total RNA was harvested for quantitative real-time RT-PCR analysis using the method described in Example 16B. […] In these experiments, berberine chloride was included for comparison.
# Quantitative real-time RT-PCR was conducted, and triplicate was assayed in each RNA sample. The data are mean value of triplicates.
# Total RNA was harvested for quantitative real-time RT-PCR analysis using method described in Examples 16B.
# [5] = tested on: Wister male rats under a high fat and high cholesterol diet; assay: Lipid lowering and body weight effects of (14R,13S)-CRDL hydrochloride salt in Wister rats; type: in vivo
# Description: Male Wister rats were used as another animal model to examine the in vivo effects of (14R,13S)-CRDL in plasma lipid levels.
# In one experiment, 18 Wister male rats under a high fat and high cholesterol diet were divided into 2 groups. One group was given (14R,13S)-CRDL hydrochloride salt orally at a daily dose of 75 mg/kg by an orogastric tube for 4 weeks, and the control group received daily treatment of equal amount of vehicle (0.1 M sodium phosphate, pH 3.5). Serum lipid levels were measured weekly.
# At the end of treatment, Rats were sacrificed and blood and sera were collected to measure several critical parameters for liver function and kidney function. […] Kidney function and blood glucose level were not changed by the treatment (FIG. 11E).
# The food intake and body weight gains were measured every week during the 4-week treatment period. […] In the first week, the amount of food consumed was decreased in CRDL-treated group. […] The ability of CRDL to activate AMPK signaling pathway to increase energy expenditure and to reduce fat accumulation likely contributes to this weight reducing effect.
# [6] = Stability of compound 69 under cell culture conditions (LC-MS of medium); type: in vitro ADME; conditions: HepG2 culture medium, 20 μM
# Description: HepG2 cells were cultured in 6-well cell culture plate in EMEM containing 0.5% FBS overnight. Compound 69+ was added to the culture medium to a final concentration of 20 μM. Medium was collected at 0 (control), 4, 8, or 24 hours after the compound addition.
# The collected media were analyzed by LC-MS on a Thermo Fisher Scientific Surveyor HPLC system and LCQ ion trap MS with electrospray ionization source. A 50×2.1 mm Hypersil Gold C18 3 um column was used with a flow rate of 200 uL/min. The method conditions were 98% A (0.1% formic acid in water)/2% B (0.1% formic acid in acetonitrile) then a gradient to 95% B in 10 minutes. The injection volume was 10 uL.
# [7] = HC diet, compared to untreated control group
# [8] = (14R,13S)-CRDL hydrochloride salt orally 75 mg/kg daily, 4 weeks
# [9] = end of 4-week treatment, 75 mg/kg daily orally
molecule,measurement,setting,value
"COc1cc2c(cc1O)CCN1Cc3c(ccc(OC)c3OC)CC21 (stereo not drawn) [14R-(+)-CRPM, 14R-(+)-corypalmine]",LDLR mRNA expression,[1],potent and dose-dependent effects
same,Activity on DiI-LDL uptake,"[2]; A, compound dose ≦ 10 μM",++
"COc1cc2c(cc1OC)[C@H]1Cc3ccc(OC)c(OC)c3CN1CC2 [14R-(+)-THP, 14R-(+)-tetrahydropalmatine]",adverse effects during the treatment period,[3],No adverse effects were observed
same,reduction of plasma TC,[3]; [7],31.6%
same,reduction of plasma TG,[3]; [7],35.93%
same,reduction of plasma non-HDL-c,[3]; [7],35.95%
same,gains of body weight during the treatment period,[3]; vs control group,very similar
same,LDLR mRNA expression,[1],potent and dose-dependent effects
same,"LDLR mRNA expression, combined with statins",[4]; added to low dose simvastatin or fluvastatin (FIG. 17),further improved the stimulatory effects of statins
same,Activity on DiI-LDL uptake,"[2]; B, compound dose ≦ 40 μM",++
"COc1cc2c(cc1OC)[C@H]1[C@@H](C)c3ccc(OC)c(OC)c3CN1CC2 [Compound 6, (13S,13aR)-2,3,9,10-tetramethoxy-13-methyl-5,6,7,8,13,13a-hexahydroiso-quinolino[2,1-b]isoquinoline hydrochloride]","LDL-c level, % of control",[5]; [8],25.6%
same,"LDL-c level, % of day 0",[5]; [8],22.4%
same,"TC, % compared to the control group",[5]; [8],33.8%
same,"TC, % of the pretreatment level",[5]; [8],33.0%
same,"TG level, % of the control",[5]; [8],29%
same,"TG level, % of the pretreatment level (day 0)",[5]; [8],27%
same,blood glucose level,[5]; [9],not changed
same,"kidney function (BUN, CREA)",[5]; [9],not changed
"COc1ccc2c(c1O)CN1CCc3cc4c(cc3C1C2)OCO4 (stereo not shown) [Compound 34, 10-methoxy-5,6,7,8,13,13a-hexahydro-2H-1,3-dioxolano[4,5-g]isoquinolino[3,2-a]isoquinolin-9-ol]",Activity on LDLR mRNA expression (Fold of control),[4],1.76 ± 0.17 Fold of control
same,Activity on DiI-LDL uptake,"[2]; A, compound dose ≦ 10 μM",++
"COc1ccc2c(c1OC(=O)NC(C)C)CN1CCc3cc4c(cc3C1C2)OCO4 (stereo not shown) [Compound 41, (10-methoxy (5,6,7,8,13,13a-hexahydro-2H-1,3-dioxolano[4,5-g]isoquinolino[3,2-a]isoquinolin-9-yloxy))-N-(methylethyl) carboxamide]",Activity on LDLR mRNA expression (Fold of control),[4],1.60 ± 0.03 Fold of control
same,Activity on DiI-LDL uptake,"[2]; A, compound dose ≦ 10 μM",++
"COc1ccc2c(c1OC(=O)N(C)C)CN1CCc3cc4c(cc3C1C2)OCO4 (stereo not shown) [Compound 43, (10-methoxy (5,6,7,8,13,13a-hexahydro-2H-1,3-dioxolano[4,5-g]isoquinolino[3,2-a]isoquinolin-9-yloxy))-N,N-dimethylcarboxamide]",Activity on LDLR mRNA expression (Fold of control),[4],1.95 ± 0.18 Fold of control
same,Activity on DiI-LDL uptake,"[2]; A, compound dose ≦ 10 μM",++
"COc1ccc2c(c1OC(=O)Nc1ccc(OC(F)(F)F)cc1)CN1CCc3cc4c(cc3C1C2)OCO4 (stereo not shown) [Compound 44, (10-methoxy (5,6,7,8,13,13a-hexahydro-2H-1,3-dioxolano[4,5-g]isoquinolino[3,2-a]isoquinolin-9-yloxy))-N-[4-(trifluoromethoxy)phenyl]car-boxamide]",Activity on LDLR mRNA expression (Fold of control),[4],2.20 ± 0.06 Fold of control
same,Activity on DiI-LDL uptake,"[2]; A, compound dose ≦ 10 μM",++
"COc1cc(NC(=O)Oc2c(OC)ccc3c2CN2CCc4cc5c(cc4C2C3)OCO5)cc(OC)c1 (stereo not shown) [Compound 45, N-(3,5-dimethoxyphenyl) (10-methoxy (5,6,7,8,13,13a-hexahydro-2H-1,3-dioxolano[4,5-g]isoquinolino[3,2-a]isoquinolin-9-yloxy)) carboxamide]",Activity on LDLR mRNA expression (Fold of control),[4],2.09 ± 0.11 Fold of control
same,Activity on DiI-LDL uptake,"[2]; A, compound dose ≦ 10 μM",++
"COc1ccc2c(c1OC(=O)Nc1cccc(C)c1)CN1CCc3cc4c(cc3C1C2)OCO4 (stereo not shown) [Compound 46, (10-methoxy (5,6,7,8,13,13a-hexahydro-2H-1,3-dioxolano[4,5-g]isoquinolino[3,2-a]isoquinolin-9-yloxy))-N-(3-methylphenyl) carboxamide]",Activity on LDLR mRNA expression (Fold of control),[4],1.80 ± 0.16 Fold of control
same,Activity on DiI-LDL uptake,"[2]; A, compound dose ≦ 10 μM",++
"CCOC(=O)Oc1c(OC)ccc2c1CN1CCc3cc4c(cc3C1C2)OCO4 (stereo not shown) [Compound 48, 10-methoxy-5,6,7,8,13,13a-hexahydro-2H-1,3-dioxolano[4,5-g]isoquinolino[3,2-a]isoquinolin-9-yl ethoxyformate]",Activity on LDLR mRNA expression (Fold of control),[4],1.45 ± 0.15 Fold of control
"COc1ccc2c(c1OC(=O)Nc1ccccc1)CN1CCc3cc4c(cc3C1C2)OCO4 (stereo not shown) [Compound 61, (10-methoxy (5,6,7,8,13,13a-hexahydro-2H-1,3-dioxolano[4,5-g]isoquinolino[3,2-a]isoquinolin-9-yloxy))-N-benzamide]",Activity on LDLR mRNA expression (Fold of control),[4],1.33 ± 0.53 Fold of control
"COc1ccc2c(c1OS(=O)(=O)c1ccccc1)CN1CCc3cc4c(cc3C1C2)OCO4 (stereo not shown) [Compound 69, 9-benzene-sulfonyloxy-10-methoxy-5,8,13,13a-tetrahydro-6H-[1,3]dioxolo[4,5-g]isoquino[3,2-a] isoquinoline]",stability under cell culture conditions,[6]; up to 24 hours,fairly stable
same,Peak Area m/z 466.1,[6]; 0 hours (control),2.38e8
same,Peak Area m/z 466.1,[6]; 4 hours,9.67e7
same,Peak Area m/z 466.1,[6]; 8 hours,9.22e7
same,Peak Area m/z 466.1,[6]; 24 hours,7.03e7
"CN1CCc2cc3c(cc2[C@H]1[C@@H]1O[C@H](O)c2c1ccc1c2OCO1)OCO3 [d-(+)-EGN, (+)-egenine]",Activity on DiI-LDL uptake,"[2]; A, compound dose ≦ 10 μM",+
(+)-corlumidin [(+)-CLMD],LDLR mRNA expression,[1],potent and dose-dependent effects
same,Activity on DiI-LDL uptake,"[2]; B, compound dose ≦ 40 μM",+
